Experimental data: paper PMC10817531, “Chlorinated Enyne Fatty Acid Amides from a Marine Cyanobacterium: Discovery of Taveuniamides L-M and Pharmacological Characterization of Taveuniamide F as a GPCR Antagonist with CNR1 Selectivity” (Marine Drugs, 2023)
Several values for one entry are separate records, joined by “and”; a condition that tells them apart may be missing. Equal entries are not always repeated.

Experiments:
Assay type in all cases: cell-based
[1] = target: T1, CNR1 (Homo sapiens, UniProt P21554); test: cAMP Hunter eXpress CNR1 (CB1) CHO-K1 GPCR assay
T1 construct: host or cells: CHO-K1
T1 sequence (P21554 whole entry): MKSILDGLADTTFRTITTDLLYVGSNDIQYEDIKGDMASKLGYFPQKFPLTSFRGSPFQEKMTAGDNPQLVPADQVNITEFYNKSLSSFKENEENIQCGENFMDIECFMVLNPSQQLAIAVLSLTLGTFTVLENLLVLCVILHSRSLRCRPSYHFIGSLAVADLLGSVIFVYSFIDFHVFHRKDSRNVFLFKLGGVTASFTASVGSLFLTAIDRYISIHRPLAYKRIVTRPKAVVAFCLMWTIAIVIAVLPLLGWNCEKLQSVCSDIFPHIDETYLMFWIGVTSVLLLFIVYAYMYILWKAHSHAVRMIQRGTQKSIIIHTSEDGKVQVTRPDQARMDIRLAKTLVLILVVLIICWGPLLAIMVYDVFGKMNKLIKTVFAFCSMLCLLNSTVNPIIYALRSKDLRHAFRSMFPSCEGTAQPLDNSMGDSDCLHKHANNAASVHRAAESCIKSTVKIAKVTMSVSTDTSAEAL
Protocol: The experiments (agonist and antagonist mode) were carried out by DiscoveRx Corporation (Fremont, CA, USA). Human CNR1 in stably transfected CHO-K1 cells were seeded in a total volume of 20 μL into white-walled, 384-well microplates and incubated at 37 °C overnight. Before testing, cell plating media was exchanged with 10 μL of assay buffer (HBSS + 10 mM HEPES).
As described in catalog ref. (86-0007P-2277AG) for the agonist mode, intermediate dilution of sample stocks was performed to generate 4× samples in assay buffer. A total of 5 μL of 4× sample and 5 μL of 4× forskolin were added to cells and incubated at 37 °C for 30 min. The final assay vehicle concentration was 1%. The results are expressed as a percent efficacy relative to the maximum response of the control ligand.
As described in catalog ref. (86-0007P-2277AN) for the antagonist mode, intermediate dilution of sample stocks was performed to generate 4× samples in assay buffer. A total of 5 μL of 4X sample was added to cells and incubated at 37 °C for 30 min, and 5uL of 4× EC80 of CP55940 in 4× forskolin reagent was added and cells incubated for 37 °C for 30 min. The final assay vehicle concentration was 1%. The results are expressed as a percent inhibition of the control ligand. The assays were performed at 10-point concentrations of 4 using 3-fold serial dilutions in duplicate, where the highest concentration was 50 µM.

[2] = system: HEK293 cells; test: MTT cell viability assay; settings: 24 h exposure, 100 μM
Protocol: (§1) HEK293 cells were purchased from ATCC (Manassas, VA, USA). They were cultured and maintained in Dulbecco’s modified Eagle medium (DMEM; Invitrogen, Waltham, MA, USA) supplemented with 10% fetal bovine serum (FBS; HyClone, Logan, UT, USA) and 1% antibiotic-antimycotic (Invitrogen) at 37 °C in a humidified atmosphere with 5% CO2. HEK293 cells were seeded in 96-well plates at densities of 15,000 cells per well in 100 μL, respectively. After 16 h of incubation, the cells were treated with 0.5 μL of various concentrations of compounds or a DMSO solvent control. Following 24 h of incubation, cells were treated with 3-(4,5-dimethylthiazol-2-yl)-2,5-diphenyltetrazolium bromide according to the manufacturer’s instructions (Promega, Madison, WI, USA). The experiments were performed as technical triplicates.

[3] = MTT cell viability assay; settings: human, HEK293 cells; 24 h exposure, majority of tested concentrations (below 100 μM)
Protocol: as §1

[4] = target: T2, EDG3 (Homo sapiens, UniProt Q99500); test: PathHunter β-arrestin GpcrMAX assay
T2 construct: purchased DiscoveRx (Eurofins) gpcrMAX PathHunter β-arrestin panel
T2 sequence (Q99500 whole entry): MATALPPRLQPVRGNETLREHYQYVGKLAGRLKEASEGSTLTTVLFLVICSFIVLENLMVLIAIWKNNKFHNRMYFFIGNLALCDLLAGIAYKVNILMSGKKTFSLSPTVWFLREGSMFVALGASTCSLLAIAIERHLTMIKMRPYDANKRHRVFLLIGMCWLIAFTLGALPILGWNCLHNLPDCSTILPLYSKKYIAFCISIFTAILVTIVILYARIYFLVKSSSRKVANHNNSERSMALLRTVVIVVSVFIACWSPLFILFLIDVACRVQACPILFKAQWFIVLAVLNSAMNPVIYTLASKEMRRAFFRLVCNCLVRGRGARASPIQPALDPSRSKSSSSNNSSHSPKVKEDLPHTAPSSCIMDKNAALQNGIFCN
Protocol: (§2) GpcrMAX panel biosensor assays were used to characterize taveuniamide F (4, 20 µM) (agonist and antagonist mode). The experiments were carried out by DiscoveRx Corporation (Fremont, CA, USA) as described before, using PathHunter β-arrestin enzyme fragment complementation (EFC) technology.

[5] = target: T3, CXCR4 (Homo sapiens, UniProt P61073); test: PathHunter β-arrestin GpcrMAX assay
T3 construct: purchased DiscoveRx (Eurofins) gpcrMAX PathHunter β-arrestin panel
T3 sequence (P61073 whole entry): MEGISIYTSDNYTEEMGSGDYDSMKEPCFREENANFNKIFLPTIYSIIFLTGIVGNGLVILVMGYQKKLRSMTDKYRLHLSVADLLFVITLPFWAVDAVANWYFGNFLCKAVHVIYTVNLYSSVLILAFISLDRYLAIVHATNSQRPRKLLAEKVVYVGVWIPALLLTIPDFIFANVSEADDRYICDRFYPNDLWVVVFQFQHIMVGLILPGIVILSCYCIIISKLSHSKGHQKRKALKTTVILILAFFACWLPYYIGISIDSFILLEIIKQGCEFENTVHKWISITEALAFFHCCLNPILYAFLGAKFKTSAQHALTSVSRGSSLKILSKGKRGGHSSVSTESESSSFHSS
Protocol: as §2

[6] = target: T4, CHRM4 (Homo sapiens, UniProt P08173); test: PathHunter β-arrestin GpcrMAX assay
T4 construct: host or cells: CHO-K1
T4 sequence (P08173 1-479): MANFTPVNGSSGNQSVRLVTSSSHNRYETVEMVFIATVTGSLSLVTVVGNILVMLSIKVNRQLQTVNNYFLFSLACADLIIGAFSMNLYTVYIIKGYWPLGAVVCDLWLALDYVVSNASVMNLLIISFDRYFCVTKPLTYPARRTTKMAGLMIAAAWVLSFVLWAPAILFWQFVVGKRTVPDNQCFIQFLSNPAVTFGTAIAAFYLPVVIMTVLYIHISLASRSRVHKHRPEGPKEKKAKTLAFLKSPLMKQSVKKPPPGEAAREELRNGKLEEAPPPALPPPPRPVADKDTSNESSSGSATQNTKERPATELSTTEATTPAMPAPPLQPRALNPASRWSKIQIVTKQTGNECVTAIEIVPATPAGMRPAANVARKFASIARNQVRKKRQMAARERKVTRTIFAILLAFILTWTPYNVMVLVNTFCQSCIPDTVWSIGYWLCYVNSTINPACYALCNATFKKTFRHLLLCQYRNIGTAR
Protocol: as §2
(§3) Dose–response curves were obtained by subjecting taveuniamide F (4) to a secondary antagonist screen utilizing ten GPCR biosensor assays (Arrestin) against the following targets: GPR119, NPSR1b, HTR2C, CCR9, CHRM4, GPR120, HTR2A, GPR103, CNR1, and CNR2. Stably transfected HEK293 cells expressing GPR119, U2OS cells expressing NPSR1b, HTR2C and HTR2A, and CHO-K1 cells expressing the rest of the mentioned receptors, were incubated with 4 for 30 min. The assays were performed at 10-point concentrations using 3-fold serial dilutions in duplicate, where the highest concentration was 50 µM.

[7] = target: T1, CNR1; test: PathHunter β-arrestin GpcrMAX assay
Protocol: as §2, §3

[8] = target: T5, NPSR1b (Homo sapiens, UniProt Q6W5P4); test: PathHunter β-arrestin GpcrMAX assay
T5 construct: β-galactosidase enzyme fragment for EFC (ProLink by own knowledge); host or cells: U2OS
T5 sequence (Q6W5P4 1-377 isoform Q6W5P4-4): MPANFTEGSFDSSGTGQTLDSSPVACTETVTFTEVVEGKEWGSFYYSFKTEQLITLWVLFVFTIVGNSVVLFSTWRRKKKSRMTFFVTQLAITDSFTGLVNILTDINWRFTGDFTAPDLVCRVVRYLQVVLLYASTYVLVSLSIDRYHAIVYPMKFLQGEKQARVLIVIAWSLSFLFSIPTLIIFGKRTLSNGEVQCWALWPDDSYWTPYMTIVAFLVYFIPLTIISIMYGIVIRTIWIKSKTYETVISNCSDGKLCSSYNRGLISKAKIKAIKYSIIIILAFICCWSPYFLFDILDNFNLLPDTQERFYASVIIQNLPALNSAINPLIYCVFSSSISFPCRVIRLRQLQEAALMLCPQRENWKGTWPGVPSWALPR
Protocol: as §2, §3

[9] = target: T6, HTR2C (Homo sapiens, UniProt P28335); test: PathHunter β-arrestin GpcrMAX assay
T6 construct: β-galactosidase enzyme fragment for EFC (ProLink by own knowledge); host or cells: U2OS
T6 sequence (P28335 33-458): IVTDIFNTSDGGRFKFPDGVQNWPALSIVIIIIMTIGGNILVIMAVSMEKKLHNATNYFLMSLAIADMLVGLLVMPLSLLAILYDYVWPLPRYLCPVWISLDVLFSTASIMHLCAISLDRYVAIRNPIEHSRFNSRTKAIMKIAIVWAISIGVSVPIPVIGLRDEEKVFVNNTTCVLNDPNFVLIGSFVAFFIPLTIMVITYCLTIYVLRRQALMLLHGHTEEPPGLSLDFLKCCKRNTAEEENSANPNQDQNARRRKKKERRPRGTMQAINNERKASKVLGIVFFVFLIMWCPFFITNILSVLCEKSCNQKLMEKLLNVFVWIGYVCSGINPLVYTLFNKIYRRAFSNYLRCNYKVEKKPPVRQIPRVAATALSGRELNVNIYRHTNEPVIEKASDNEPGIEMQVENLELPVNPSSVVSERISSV
Protocol: as §2, §3

[10] = antagonist dose–response, 10-point, CHO-K1 cells, 30 min
[11] = antagonist mode (% inhibition), 20 µM
[12] = antagonist dose–response, 10-point, U2OS cells, 30 min

CC(=O)N[C@@H](CCCC#C/C=C/Cl)CCCCCCC(Cl)Cl [Compound 4, taveuniamide F]
mode of activity in CNR1 cAMP functional assay ([1]; agonist and antagonist mode): antagonist/inverse agonist | IC50 ([1]; antagonist mode, EC80 of CP55940, forskolin, CHO-K1 cells, read-out: IC50, inhibition of CNR1-agonist-induced cAMP downregulation): 21 µM | reduction in cell viability [2]: 56% | viability at 24 h [3]: 100% | inhibition at 20 µM [4]: 21% | inhibition at 20 µM [5]: 43.8% | IC50 [6, 10]: 1900 nM and 1920 nM | inhibition [6, 11]: ≥ 80% | inhibition at 20 µM [6, 11]: 98.2% | IC50 [7, 10]: 1840 nM | inhibition [7, 11]: ≥ 80% | inhibition at 20 µM [7, 11]: 84% | selectivity for CNR1 over CNR2 ([7]; antagonist screen (β-arrestin), CNR1 vs. CNR2): 6.8 fold | IC50 [8, 12]: 4.4 µM and 4.36 µM | inhibition [8, 11]: 102% and ≥ 80% | IC50 [9, 12]: > 50 µM | inhibition [9, 11]: ≥ 80% | inhibition at 20 µM [9, 11]: 99.1%
